Assay results reported in patent US20180289655A1, “Methods and Compositions for the Intravenous Administration of Fumarates for the Treatment of Neurological Diseases” (Biogen MA Inc., priority 2015, published 2018).
Structures can show the parent of a compound that is named as a salt.

Tests used:
[1] = MMF exposure in plasma and tissues after DMF PO/IV or MMF IV (LC-MS/MS); format: in vivo, C57BL/6 mice
Procedure: Aliquots (25 μL) of either plasma or tissue homogenate samples were extracted by protein precipitation with acetonitrile containing 4C13-MMF as the internal standard. For tissue samples, aliquots of homogenization solution (plasma with 12.5 mg/mL of NaF) were added to the tissue samples. The tissue samples were homogenized at 6.5 m/s for 60 seconds on a Fast Prep Tissue Homogenizer prior to protein precipitation. Concentrations of MMF in plasma, brain, jejunum and kidney samples were determined using qualified LC-MS/MS assays in the respective matrices. Data collections and integrations were accomplished using an API 5500 triple quadrupole mass spectrometer with a turbo ion spray interface (AB Sciex, Foster City, Calif.), and Analyst software (version 1.6.1). The peak area ratios of MMF relative to its internal standard were used to construct a standard curve using a quadratic regression with a 1/x^2 weighting. The lower limits of quantitation (LLOQ) were 1 ng/mL for the three tissue assays and 10 ng/mL for the plasma assay, respectively. The performances of the assays were monitored by the precision and accuracy of the standards and quality control samples.
MMF exposure levels were evaluated 10 minutes and 2 hours after dosing, while pharmacodynamic transcriptional responses were analyzed at 2 hours post-dose.
(§1) At the 10-minute time point, 4 animals from each group were sacrificed, with plasma and tissues (brain, jejunum and kidney) collected to determine MMF exposure. Two hours after dosing, the remaining 4 animals were sacrificed, and plasma and tissues were collected. Tissue samples from the 2-hour time point were divided, with half of each sample used for MMF exposure analysis, and half for RNA extraction and qRT-PCR to evaluate the expression of Nrf2 target genes.
MMF exposure levels were evaluated 10 minutes and 2 hours after dosing, while transcriptional pharmacodynamic responses were analyzed at 2 and 6 hours post-dose. A complete blood count (CBC) with differential panel was performed at 10 minutes, 2 hours, and 6 hours post-dose.
(§2) Ten minutes after dosing, 4 animals from each group were sacrificed, and plasma and tissues (brain, kidney, jejunum and spleen) were collected to quantify MMF exposure levels, as well as whole blood to perform CBC. Two hours post-dose, another 4 animals from each group were sacrificed, and plasma, whole blood, and tissues were collected. Tissue samples from the 2-hour time point were split, with half of each sample used for MMF exposure analysis, and half for RNA extraction/qRT-PCR to evaluate the expression of Nrf2 target genes. Six hours after dosing, the last 4 animals from each group were sacrificed, and whole blood and tissues were collected.

blood cell populations = assay: Complete blood count (CBC) with differential after IV dosing; format: in vivo, C57BL/6 mice
Procedure: Whole blood samples (250 μL) were collected in EDTA tubes at indicated time points after dosing, and were maintained at 4° C. until analysis for CBC with differential at Charles River Laboratories (analyzed within 24-36 hours from time of collection).
Statistical analyses on blood cell fractions were not completed due to the overall variability and low number of replicates for the samples in this pilot study.
(§3) A CBC with differential panel was performed at 10 minutes post-last dose via facial vein bleeding, and at 2 hours after the last dose, pharmacodynamic Nrf2 transcriptional responses were analyzed in tissues from the same animals. Histopathology was also performed on regions of the tail in a pilot toxicology study.

Nrf2 target genes = assay: qRT-PCR of Nrf2 target genes, statements over all tested genes; format: in vivo, C57BL/6 mice
Procedure: For RNA preparation, frozen tissues were placed in 2 mL RNAse-free 96-well blocks with 1.5 mL QIAzol Lysis Reagent (QIAgen) and a 3.2 mm stainless steel bead (BioSpec Products, Bartlesville, Okla.). Tissues were disrupted for four cycles of 45 seconds in a Mini-Beadbeater (Biospec Products). RNA was extracted with chloroform and the aqueous phase was mixed with an equal volume of 70% ethanol. Extracted RNA was applied to RNeasy 96 plates and purified by the spin method according to the manufacturer's protocol (RNeasy 96 Universal Tissue Protocol, QIAgen, Hilden Germany).
Samples were reverse-transcribed into cDNA according to the manufacturer protocols using the High Capacity cDNA Reverse Transcription Kit (Life Technologies, Carlsbad, Calif.) and analyzed by qRT-PCR. Mouse target gene primers and 6-FAM™ dye-labeled TaqMan® MGB™ probes (Life Technologies) were used. Reactions containing 100 ng of cDNA, 900 nM of each primer, and 250 nM TaqMan probes were cycled on a QuantStudio 12 k-flex system (Life Technologies) once for 10 minutes at 95° C., followed by 40 cycles of 95° C. for 10 seconds and 60° C. for 1 minute. All samples were measured in triplicate with Gapdh as a normalizing gene. Taqman primer/probe sets from Life Technologies included: Akr1b8 (Mm00484314_m1); Gapdh (Mm03302249_g1); Gclc (Mm00802655_m1); Hmox1 (Mm00516005_m1); Nqo1 (Mm01253561_m1); and Osgin1 (Mm00660947_m1). Comparative CT method was used to calculate fold changes and samples were normalized relative to time-matched vehicle control.
as §1, §2, §3

[2] = Chemical stability of DMF nano suspension (HPLC); format: physicochemical; settings: Day 1, room temperature
Procedure: 5.0 ml of pH5.0 phosphate buffer (Fisher Scientific, Lot No. 100498) were added to the tube. Further, ZrO2 beads (˜10 ml) were also added to the tube. The sample was vortexed in a Fisher Scientific multi-tube vortexer at 2500 rpm for 60 min and the particle size was checked via optical microscopic image. An additional 5.0 ml of pH5 phosphate buffer was added and the sample was further milled overnight. The temperature of the sample was ˜60° C. due to the overnight milling. The particle size was determined via microscopic image and Mastersizer 2000.
The suspension was stored at room temperature and samples were taken at day 1 and day 7. The stability of the samples was examined using HPLC method for chemical stability, PSD and microscopic image (data not provided) for physical stability.

[3] = Study 3, DMF IV 30 mg/kg once daily x5
[4] = Study 3, DMF IV 30 mg/kg once daily x5, vs vehicle
[5] = Study 3, DMF IV 30 mg/kg once daily x5, 2 hours after dosing

SMILES: COC(=O)/C=C/C(=O)OC [DMF, dimethyl fumarate]
- MMF level in plasma ([1]; Study 1, IV DMF, 2 hours): no detectable MMF in plasma
- MMF level in any tissue ([1]; Study 1, PO or IV DMF, 2 hours): no detectable MMF in any tissue
- MMF level in plasma or any tissues ([1]; Study 2, 2 hours, DMF 30 mg/kg or MMF 27.08 mg/kg IV): no detectable MMF in plasma or in any tissues
- MMF levels in kidney, jejunum and spleen, DMF versus MMF ([1]; Study 2, IV, 10 minutes): no significant differences were noted in MMF levels
- Reduction in white blood cell counts (neutrophils, lymphocytes, monocytes, eosinophils, basophils) (blood cell populations; Study 2, single IV dose DMF 30 mg/kg or MMF 27.08 mg/kg, 2-hour time point): did not specifically coincide with DMF or MMF treatment
- Effect on red blood cells, hemoglobin, hematocrit, mean corpuscular volume, platelets (blood cell populations; Study 2, single IV dose DMF 30 mg/kg or MMF 27.08 mg/kg, 10 minutes, 2 and 6 hours): no effect on red blood cells, hemoglobin, hematocrit, mean corpuscular volume, or platelets
- Effect on red blood cells, hemoglobin, hematocrit, mean corpuscular volume, platelets (blood cell populations; [3]): no effects on red blood cells, hemoglobin, hematocrit, mean corpuscular volume, or platelets
- White blood cells (blood cell populations; [3]): general reduction in white blood cells
- Decrease in lymphocytes (blood cell populations; [4]): 38%
- Decrease in monocytes (blood cell populations; [4]): 60%
- Changes in gene expression, jejunum (Nrf2 target genes; Study 1, DMF IV 17.5 mg/kg, 2 hours): No significant changes in gene expression
- Changes in transcript levels, kidney (Nrf2 target genes; Study 2, DMF IV 30 mg/kg, 2 hours): No significant changes
- Genes significantly increased, brain (Nrf2 target genes; [5]): significant increase was observed in brain Hmox1, Osgin1, and Gclc levels
- Genes significantly increased, kidney and jejunum (Nrf2 target genes; [5]): Significant increases were also observed in Akr1b8, Nqo1, and Osgin1 levels
- Other transcripts in tissues analyzed (Nrf2 target genes; Study 3, DMF IV 30 mg/kg once daily x5, 2 hours post-last dose): generally unaffected
- Area % of DMF remaining [2]: 99.9 area %
